Where a name gives a salt, the structure may show the parent alone.
Legend:
[1] = Acute toxicity, LD 50 (oral route), mice; settings: mouse, in vivo
From the text: A--The substances are of low toxicity. For example, the LD 50 value (oral route), determined in mice, of various compounds in accordance with the present invention are shown in column A of Table I.

[2] = system: spasms of pain caused by the intraperitoneal injection of a solution of acetic acid; assay: Analgesic activity, acetic acid induced spasms of pain (Koster et al.); format: in vivo; settings: mouse, oral; dose reducing spasms of pain by 50%; read-out: AD50, Acetic Acid
Description: B--Analgesic activity in the mouse was determined by the method of Koster et al. (Fed. Proc. 1959, Vol. 18, page 412). The active dose 50 (AD50) value for various compounds in accordance with the present invention was determined, namely, that dose which, when administered orally, reduces by 50% the spasms of pain caused by the intraperitoneal injection of a solution of acetic acid.

[3] = system: carrageenin-induced edema; assay: Anti-inflammatory activity, carrageenin-induced edema test (Winter et al.); format: in vivo; settings: rat, oral; dose inhibiting edema by 30%; read-out: AD30, Carrageenin
From the text: The protection afforded, by oral administration of the compound to a rat against edema induced by injecting a suspension of carrageenin under the arch of the foot of the animal was investigated. The AD30 dose is that which inhibits the edema by 30%.

platelets = assay: In vitro inhibition of platelet aggregation induced by collagen (Born); format: cell-based; settings: read-out: minimal active concentration, Platelet Aggregation Induced By Collagen
Description: E--The anti-inflammatory activity was also determined by the aggregation-inhibiting effect of the compounds in accordance with the present invention, in vitro, on platelets the aggregation of which was induced by collagen, in accordance with the method of Born (Journal of Physiology, 1962, Vol. 162, page 67). It is known that compounds which inhibit the activity or quantity of prostaglandin synthetase will inhibit the formation of prostaglandin PGE2 and the inflammatory and pyretic effect thereof. Since prostaglandin PGE2 also causes an increase in platelet aggregation, this test is an effective indication of anti-inflammatory and anti-pyretic activity due to inhibition of prostaglandin synthetase.

[4] = system: erythema produced by ultra violet radiation; assay: Protective effect against erythema from ultra violet radiation (Winder et al.); format: in vivo, albino guinea pigs; settings: Cavia porcellus; albino guinea pig, oral; amount reducing erythema by 50%; read-out: AD50, U.V.
Description: D--The protective effect against inflammation resulting from exposure to radiation was determined in albino guinea pigs using the method of Winder et al (Arch. Inv. Pharmacodyn. 1958, Vol. 116, page 261). The AD50 value was determined for the test substance, namely the amount which, when administered to the animal orally, reduced by 50% the erythema produced by exposing the shaved dorsal skin of the guinea pig to ultra violet radiation.

[5] = Experiment A: clinical case studies, anti-inflammatory activity, oral administration; format: in vivo
Description: The following clinical experimentation was carried out to clinically test various compounds in accordance with the present invention for their anti-inflammatory, analgesic and platelet aggregation or clumping inhibition activites. […] Diagonsis: Seropositive, classic, rheumatoid polyarthritis, radioclinical stage IV Treatment: 600 mg/day for 3 weeks Diagnosis: Ankylosing spondylarthrittis with signs of peripheral joint inflammation Treatment: 600 mg/day for 3 weeks Diagnosis: Psoriatic peripheral rheumatism Treatment: 600 mg/day for 15 days

[6] = Case 1, rheumatoid polyarthritis, oral 600 mg/day for 3 weeks
[7] = Case 2, ankylosing spondylarthritis, oral 600 mg/day for 3 weeks
[8] = Case 3, psoriatic peripheral rheumatism, oral 600 mg/day for 15 days

SMILES | LD50 [1] | ED50 [2] | ED30 [3] | minimal effective concentration (platelets) | ED50 [4] | other results
CCN(CC)CCOC(=O)C1Cc2ccc(C(=O)c3ccco3)cc2C1 (stereo not drawn) [2'-(N,N-diethylaminoethyl) 5-(2'-furoyl)-indan-2-carboxylate] | 1200 mg/kg | 8 mg/kg | 18 mg/kg | 1 µg/mL | 20 mg/kg | –
CCN(CC)CCOC(=O)C1Cc2ccc(C(=O)c3cccs3)cc2C1 (stereo not drawn) [2'-(N,N-diethylaminoethyl) 5-(2'-thenoyl)-indan-2-carboxylate, hydrochloride] | 2160 mg/kg | 4 mg/kg | 8 mg/kg | 0.25 µg/mL | 10 mg/kg | –
O=C(c1ccc2c(c1)CC(C(=O)O)C2)c1ccco1 (stereo not drawn) [5-(2'-furoyl)-indan-2-carboxylic acid, 5-(2'-Furoyl)-indan-2-carboxylic acid] | 1000 mg/kg | 11 mg/kg | 23 mg/kg | 1 µg/mL | 14 mg/kg | –
O=C(c1ccc2c(c1)CC(C(=O)O)C2)c1cccs1 (stereo not drawn) [5-(2'-thenoyl)-indan-2-carboxylic acid] | 1200 mg/kg | 6.5 mg/kg | 10 mg/kg | 2.5 µg/mL | 21 mg/kg | –
Cc1ccsc1C(=O)c1ccc2c(c1)CC(C(=O)O)C2 (stereo not drawn) [5-(3'-Methyl-2'-thenoyl)-indan-2-carboxylic acid] | 1200 mg/kg | 37 mg/kg | 26 mg/kg | 10 µg/mL | 25 mg/kg | –
O=C(c1ccoc1)c1ccc2c(c1)CC(C(=O)O)C2 (stereo not drawn) [5-(3'-furoyl)-indan-2-carboxylic acid, 5-(3'-Furoyl)-indan-2-carboxylic acid] | 2400 mg/kg | 16 mg/kg | 20 mg/kg | 5 µg/mL | 18 mg/kg | –
O=C(c1ccc2c(c1)CC(C(=O)O)C2)c1cc(Cl)c(Cl)s1 (stereo not drawn) [5-(4',5'-dichloro-2'-thenoyl)-indan-2-carboxylic acid] | 180 mg/kg | 30 mg/kg | 42 mg/kg | 7.5 µg/mL | 90 mg/kg | –
COc1ccc(C(=O)c2ccc3c(c2)CC(C(=O)O)C3)cc1 (stereo not drawn) [5-(4'-Methoxybenzoyl)-indan-2-carboxylic acid] | 650 mg/kg | 6 mg/kg | 13 mg/kg | 2.5 µg/mL | 34 mg/kg | –
CN(C)c1ccc(C(=O)c2ccc3c(c2)CC(C(=O)O)C3)cc1 (stereo not drawn) [5-(4'-dimethylaminobenzoyl)-indan-2-carboxylic acid] | 960 mg/kg | 3 mg/kg | 14 mg/kg | 0.5 µg/mL | 20 mg/kg | –
Cc1ccc(C(=O)c2ccc3c(c2)CC(C(=O)O)C3)o1 (stereo not drawn) [5-(5'-Methyl-2'-furoyl)-indan-2-carboxylic acid] | 2400 mg/kg | 8 mg/kg | 10 mg/kg | 1 µg/mL | 16 mg/kg | –
Cc1ccc(C(=O)c2ccc3c(c2)CC(C(=O)O)C3)s1 (stereo not drawn) [5-(5'-Methyl-2'-thenoyl)-indan-2-carboxylic acid] | 3000 mg/kg | 12 mg/kg | 7.5 mg/kg | 1 µg/mL | 14 mg/kg | Tolerance ([5]; Case 1, oral 600 mg/day for 3 weeks): Very good clinical and biological tolerance; Conclusion [5, 6]: Good result; erythrocyte sedimentation rate (ESR) [5, 6]: decrease; mobility [5, 6]: Improved mobility; morning stiffness [5, 6]: Decrease; peripheral pain [5, 6]: Decrease; Conclusion [5, 7]: Good result; analgesic effect [5, 7]: Good analgesic effect; articular perimeters [5, 7]: decrease in articular perimeters; effectiveness compared with phenylbutazone [5, 7]: As effective as phenylbutazone; mobility [5, 7]: Good mobility; Tolerance ([5]; Case 2, oral 600 mg/day for 3 weeks): Good clinical and biological tolerance; Tolerance ([5]; Case 3, oral 600 mg/day for 15 days): Good clinical and biological tolerance; Conclusion [5, 8]: Very good result; articular perimeter [5, 8]: decrease in articular perimeter; local heat [5, 8]: decrease in local heat; morning pain [5, 8]: Decrease in morning pain
CN(C)S(=O)(=O)c1ccc(C(=O)c2ccc3c(c2)CC(C(=O)O)C3)cc1 (stereo not drawn) [5-(p-dimethylaminosulfonylbenzoyl)-indan-2-carboxylic acid] | 2600 mg/kg | 80 mg/kg | 160 mg/kg | 10 µg/mL | > 300 mg/kg | –
CS(=O)(=O)c1ccc(C(=O)c2ccc3c(c2)CC(C(=O)O)C3)cc1 (stereo not drawn) [5-(p-methylsulfonylbenzoyl)-indan-2-carboxylic acid] | 2800 mg/kg | 35 mg/kg | 40 mg/kg | 1 µg/mL | 10 mg/kg | –
NS(=O)(=O)c1ccc(C(=O)c2ccc3c(c2)CC(C(=O)O)C3)cc1 (stereo not drawn) [5-(p-sulfamidobenzoyl)-indan-2-carboxylic acid] | > 3200 mg/kg | 25 mg/kg | 43 mg/kg | 5 µg/mL | 90 mg/kg | –
O=C(c1ccccc1)c1ccc2c(c1)CC(C(=O)O)C2 (stereo not drawn) [5-benzoyl-indan-2-carboxylic acid] | 2100 mg/kg | 40 mg/kg | 18 mg/kg | 2.5 µg/mL | 40 mg/kg | –
CCOC(=O)C1Cc2ccc(C(=O)c3ccc(NC(C)=O)c(Cl)c3)cc2C1 (stereo not drawn) [Ethyl 5-(4'-acetamido-3'-chlorobenzoyl)-indan-2-carboxylate] | 3200 mg/kg | 35 mg/kg | 60 mg/kg | 5 µg/mL | 80 mg/kg | –
CCN(CC)CCNC(=O)C1Cc2ccc(C(=O)c3cc(Cl)ccc3Cl)cc2C1 (stereo not drawn) [N-[2'-(N',N'-diethylaminoethyl)]5-(2',5'-dichlorobenzoyl)-indan-2-carboxamide] | 720 mg/kg | 15 mg/kg | 25 mg/kg | 2.5 µg/mL | 50 mg/kg | –
CCN(CC)CCNC(=O)C1Cc2ccc(C(=O)c3cccs3)cc2C1 (stereo not drawn) [N-[2'-(N',N'-diethylaminoethyl)]5-(2'-thenoyl)-indan-2-carboxamide] | 660 mg/kg | 2.5 mg/kg | 8 mg/kg | 0.25 µg/mL | 10 mg/kg | –
CCN(CC)CCNC(=O)C1Cc2ccc(C(=O)c3ccccc3)cc2C1 (stereo not drawn) [N-[2'-(N',N'-diethylaminoethyl)] 5-benzoyl-indan-2-carboxamide] | 1100 mg/kg | 30 mg/kg | 9 mg/kg | 2.5 µg/mL | 25 mg/kg | –
COC(=O)C1Cc2ccc(C(=O)c3ccco3)cc2C1 (stereo not drawn) [methyl 5-(2'-furoyl)-indan-2-carboxylate, Methyl 5-(2'-furoyl)-indan-2-carboxylate] | 3200 mg/kg | 9 mg/kg | 13 mg/kg | 1 µg/mL | 19 mg/kg | –

— patent US4269848A, “5-Substituted indan-2-carboxylic acid and functional derivatives” (Lipha, Lyonnaise Industrielle Pharmaceutique, priority 1976, dated 1981)
